Experimental data: patent US9206219B2, “17-hydroxy-17-pentafluorethyl-estra-4,9(10)-dien-11-aryl derivatives, methods for the production thereof and the use thereof for treating diseases” (Bayer Intellectual Property GmbH, priority 2009, dated 2015)

Experiments:
[1] = molecular target: T1, human progesterone receptor A (Homo sapiens, UniProt P06401); assay: Progesterone receptor-antagonistic action in stably transfected SK-N-MC cells, MMTV-LUC reporter (PR-A); type: cell-based; details: antagonistic potency vs 0.1 nmol/l promegestone, 24 hours
T1 construct: expressed in transfected cells; host or cells: SK-N-MC human neuroblastoma cells, stably transfected with pRChPR-A-neo and pMMTV-LUC
T1 sequence (P06401 1-769 isoform P06401-2): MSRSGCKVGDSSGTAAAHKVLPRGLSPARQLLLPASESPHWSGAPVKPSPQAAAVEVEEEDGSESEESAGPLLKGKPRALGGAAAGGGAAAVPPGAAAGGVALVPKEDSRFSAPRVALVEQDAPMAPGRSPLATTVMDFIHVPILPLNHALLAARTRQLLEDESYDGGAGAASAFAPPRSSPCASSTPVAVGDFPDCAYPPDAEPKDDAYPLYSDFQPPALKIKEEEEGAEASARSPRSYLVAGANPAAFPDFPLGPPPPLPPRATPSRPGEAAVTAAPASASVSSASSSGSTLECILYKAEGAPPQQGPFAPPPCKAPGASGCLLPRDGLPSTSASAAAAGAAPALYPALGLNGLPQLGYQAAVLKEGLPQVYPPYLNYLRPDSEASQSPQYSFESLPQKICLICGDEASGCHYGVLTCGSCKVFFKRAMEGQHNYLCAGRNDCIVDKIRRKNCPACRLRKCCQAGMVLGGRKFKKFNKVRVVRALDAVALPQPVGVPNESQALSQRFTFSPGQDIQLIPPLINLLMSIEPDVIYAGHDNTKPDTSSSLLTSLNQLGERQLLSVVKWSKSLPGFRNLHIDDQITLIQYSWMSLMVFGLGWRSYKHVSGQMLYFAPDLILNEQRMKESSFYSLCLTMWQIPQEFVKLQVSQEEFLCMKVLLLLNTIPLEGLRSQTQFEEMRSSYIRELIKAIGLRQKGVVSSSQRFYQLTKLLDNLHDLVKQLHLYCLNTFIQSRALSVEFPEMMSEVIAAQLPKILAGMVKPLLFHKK
Procedure: (§1) Progesterone Receptor-Antagonistic Action in Stable Transfectants of Human Neuroblastoma Cells (SK-N-MC Cells) with the Human Progesterone A or Progesterone B Receptor and an MN-LUC Reporter Construct
(§2) SK-N-MC cells (human neuroblastoma cells) which have been stably transfected with plasmids expressing the human progesterone receptor B (pRChPR-B-neo) or the human progesterone receptor A (pRChPR-A-neo) and a reporter construct (pMMTV-LUC) were incubated for 24 hours either in the absence (negative control) or in the presence of ascending amounts of the particular test compound (0.01 nmol/l, 0.1 nmol/l, 1 nmol/l, 10 nmol/l, 100 nmol/l and […]), in order to determine the agonistic efficacy. As a positive control of the reporter gene induction, the cells were treated with the synthetic gestagen promegestone (0.01 nmol/l, 0.1 nmol/l, 1 nmol/l, 10 nmol/l, 100 nmol/l and […]). To determine the antagonistic activity, the cells were treated with 0.1 nmol/l promegestone and additionally with ascending amounts of the particular test compound (0.01 nmol/l, 0.1 nmol/l, 1 nmol/l, 10 nmol/l, 100 nmol/l and […]). The activity of the reporter gene LUC (LUC=luciferase) was determined in the cell lysates and measured as RLU (relative light units). All measurements are reported as % efficacy and as EC50 and IC50 concentrations.

[2] = molecular target: T2, human progesterone receptor B (Homo sapiens, UniProt P06401); assay: Progesterone receptor-antagonistic action in stably transfected SK-N-MC cells, MMTV-LUC reporter (PR-B); type: cell-based; details: antagonistic potency vs 0.1 nmol/l promegestone, 24 hours
T2 construct: expressed in transfected cells; host or cells: SK-N-MC human neuroblastoma cells, stably transfected with pRChPR-B-neo and pMMTV-LUC
T2 sequence (P06401 1-933): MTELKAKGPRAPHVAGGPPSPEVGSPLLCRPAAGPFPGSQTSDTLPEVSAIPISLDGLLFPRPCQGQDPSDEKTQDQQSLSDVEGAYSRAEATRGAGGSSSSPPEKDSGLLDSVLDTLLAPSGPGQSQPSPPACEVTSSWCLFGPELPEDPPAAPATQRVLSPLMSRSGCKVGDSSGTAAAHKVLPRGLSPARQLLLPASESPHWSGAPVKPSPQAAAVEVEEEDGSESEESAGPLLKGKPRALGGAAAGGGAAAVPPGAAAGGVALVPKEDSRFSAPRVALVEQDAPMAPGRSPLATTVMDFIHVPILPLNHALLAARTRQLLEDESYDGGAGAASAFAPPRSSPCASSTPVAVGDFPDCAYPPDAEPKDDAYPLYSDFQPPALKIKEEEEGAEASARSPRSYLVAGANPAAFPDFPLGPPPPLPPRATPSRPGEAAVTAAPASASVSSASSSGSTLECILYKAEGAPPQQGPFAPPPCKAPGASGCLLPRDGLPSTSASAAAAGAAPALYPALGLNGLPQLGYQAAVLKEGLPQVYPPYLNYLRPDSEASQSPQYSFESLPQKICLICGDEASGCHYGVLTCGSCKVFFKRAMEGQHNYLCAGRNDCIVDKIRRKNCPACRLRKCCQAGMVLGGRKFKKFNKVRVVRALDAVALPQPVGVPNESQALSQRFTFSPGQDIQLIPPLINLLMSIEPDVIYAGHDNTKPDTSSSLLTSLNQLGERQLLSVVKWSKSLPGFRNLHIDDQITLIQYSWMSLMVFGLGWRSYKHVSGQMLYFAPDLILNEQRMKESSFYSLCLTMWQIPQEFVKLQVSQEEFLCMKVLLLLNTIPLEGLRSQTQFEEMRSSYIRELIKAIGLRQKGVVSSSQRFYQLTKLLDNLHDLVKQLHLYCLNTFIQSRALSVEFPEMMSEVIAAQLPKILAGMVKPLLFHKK
Procedure: as §1, §2

C=CCNC(=O)NCc1ccc([C@H]2C[C@@]3(C)[C@@H](CC[C@@]3(O)C(F)(F)C(F)(F)F)[C@@H]3CCC4=CC(=O)CCC4=C32)cc1 [Example 18, 1-allyl-3-[4-((8S,11R,13S,14S,17S)-17-hydroxy-13-methyl-3-oxo-17-pentafluoroethyl-2,3,6,7,8,11,12,13,14,15,16,17-dodecahydro-1H-cyclopenta[a]phenanthren-11-yl)benzyl]urea] was tested. Which IC50 [1] did it give?
The IC50 was 0.8 nM.

What about the IC50 [2] of the same compound?
Its IC50 is 0.8 nM.

CC1(c2cccc([C@H]3C[C@@]4(C)[C@@H](CC[C@@]4(O)C(F)(F)C(F)(F)F)[C@@H]4CCC5=CC(=O)CCC5=C43)c2)CC1 [Example 13, (8S,11R,13S,14S,17S)-17-hydroxy-13-methyl-11-[3-(1-methylcyclopropyl)phenyl]-17-pentafluoroethyl-1,2,6,7,8,11,12,13,14,15,16,17-dodecahydrocyclopenta[a]phenanthren-3-one] was tested. Which IC50 [1] did it give?
The IC50 was 4 nM.

What about the IC50 [2] of the same compound?
The IC50 was 7 nM.

For CCOC(=O)c1ccc(NC(=O)OCc2ccc([C@H]3C[C@@]4(C)[C@@H](CC[C@@]4(O)C(F)(F)C(F)(F)F)[C@@H]4CCC5=CC(=O)CCC5=C43)cc2)cc1 [Example 52, 4-[4-((8S,11R,13S,14S,17S)-17-hydroxy-13-methyl-3-oxo-17-pentafluoroethyl-2,3,6,7,8,11,12,13,14,15,16,17-dodecahydro-1H-cyclopenta[a]phenanthren-11-yl)benzyloxycarbonylamino]benzoic acid ethyl ester], which IC50 [1] is on record?
The IC50 was 0.1 nM.

And the IC50 [2]?
The IC50 was 0.1 nM.

C[C@]12C[C@H](c3ccc(C4CC4)cc3)C3=C4CCC(=O)C=C4CC[C@H]3[C@@H]1CC[C@@]2(O)C(F)(F)C(F)(F)F [Example 1, (8S,11R,13S,14S,17S)-11-(4-cyclopropylphenyl)-17-hydroxy-13-methyl-17-pentafluoroethyl-1,2,6,7,8,11,12,13,14,15,16,17-dodecahydrocyclopenta[a]phenanthren-3-one] was tested. Which IC50 [1] did it give?
The IC50 was < 0.001 nM.

And the IC50 [2]?
The IC50 was 0.004 nM.

Which IC50 [1] does the source give for C[C@]12C[C@H](c3ccc(-c4nnn[nH]4)cc3)C3=C4CCC(=O)C=C4CC[C@H]3[C@@H]1CC[C@@]2(O)C(F)(F)C(F)(F)F [Example 31, (8S,11R,13S,14S,17S)-17-hydroxy-13-methyl-17-pentafluoroethyl-11-[4-(1H-tetrazol-5-yl)phenyl]-1,2,6,7,8,11,12,13,14,15,16,17-dodecahydrocyclopenta[a]phenanthren-3-one] here?
Its IC50 is 138 nM.

And the IC50 [2]?
The IC50 was 137 nM.

What does the source list for C[C@]12C[C@H](c3ccc(CNC(=O)NCC(=O)O)cc3)C3=C4CCC(=O)C=C4CC[C@H]3[C@@H]1CC[C@@]2(O)C(F)(F)C(F)(F)F [Example 26, {3-[4-((8S,11R,13S,14S,17S)-17-hydroxy-13-methyl-3-oxo-17-pentafluoroethyl-2,3,6,7,8,11,12,13,14,15,16,17-dodecahydro-1H-cyclopenta[a]phenanthren-11-yl)benzyl]ureido}acetic acid]?
IC50 [1]: 24 nM; IC50 [2]: 64 nM

What does the source list for CC(=O)c1cccc([C@H]2C[C@@]3(C)[C@@H](CC[C@@]3(O)C(F)(F)C(F)(F)F)[C@@H]3CCC4=CC(=O)CCC4=C32)c1 [Example 10, (8S,11R,13S,14S,17S)-11-(3-acetylphenyl)-17-hydroxy-13-methyl-17-pentafluoroethyl-1,2,6,7,8,11,12,13,14,15,16,17-dodecahydrocyclopenta[a]phenanthren-3-one]?
IC50 [1]: 5 nM; IC50 [2]: 3 nM

For C[C@]12C[C@H](c3ccc(CNC(=O)Nc4ccc(C(=O)O)cc4)cc3)C3=C4CCC(=O)C=C4CC[C@H]3[C@@H]1CC[C@@]2(O)C(F)(F)C(F)(F)F [Example 38, 4-{3-[4-((8S,11R,13S,14S,17S)-17-hydroxy-13-methyl-3-oxo-17-pentafluoroethyl-2,3,6,7,8,11,12,13,14,15,16,17-dodecahydro-1H-cyclopenta[a]phenanthren-11-yl)benzyl]ureido}benzoic acid], which IC50 [1] is on record?
The IC50 was 25 nM.

And the IC50 [2]?
Its IC50 is 36 nM.

C[C@]12C[C@H](c3ccc(CNC(=O)Nc4ccc(N5CCCCC5)cc4)cc3)C3=C4CCC(=O)C=C4CC[C@H]3[C@@H]1CC[C@@]2(O)C(F)(F)C(F)(F)F [Example 39, 1-[4-((8S,11R,13S,14S,17S)-17-hydroxy-13-methyl-3-oxo-17-pentafluoroethyl-2,3,6,7,8,11,12,13,14,15,16,17-dodecahydro-1H-cyclopenta[a]phenanthren-11-yl)benzyl]-3-(4-piperidin-1-ylphenyl)urea] was tested. Which IC50 [1] did it give?
Its IC50 is 0.1 nM.

What about the IC50 [2] of the same compound?
The IC50 was 0.2 nM.

For CCOC(=O)CNC(=O)NCc1ccc([C@H]2C[C@@]3(C)[C@@H](CC[C@@]3(O)C(F)(F)C(F)(F)F)[C@@H]3CCC4=CC(=O)CCC4=C32)cc1 [Example 21, {3-[4-((8S,11R,13S,14S,17S)-17-hydroxy-13-methyl-3-oxo-17-pentafluoroethyl-2,3,6,7,8,11,12,13,14,15,16,17-dodecahydro-1H-cyclopenta[a]phenanthren-11-yl)benzyl]ureido}acetic acid ethyl ester], which IC50 [1] is on record?
Its IC50 is 1.2 nM.

And the IC50 [2]?
The IC50 was 2.4 nM.

With COc1ccc(NC(=O)NCc2ccc([C@H]3C[C@@]4(C)[C@@H](CC[C@@]4(O)C(F)(F)C(F)(F)F)[C@@H]4CCC5=CC(=O)CCC5=C43)cc2)cc1 [Example 32, 1-[4-((8S,11R,13S,14S,17S)-17-hydroxy-13-methyl-3-oxo-17-pentafluoroethyl-2,3,6,7,8,11,12,13,14,15,16,17-dodecahydro-1H-cyclopenta[a]phenanthren-11-yl)benzyl]-3-(4-methoxyphenyl)urea] as the compound, how does the IC50 [1] read?
The IC50 was 0.1 nM.

And the IC50 [2]?
The IC50 was 0.2 nM.

Which IC50 [1] does the source give for CCOC(=O)c1ccc(NC(=O)NCc2ccc([C@H]3C[C@@]4(C)[C@@H](CC[C@@]4(O)C(F)(F)C(F)(F)F)[C@@H]4CCC5=CC(=O)CCC5=C43)cc2)cc1 [Example 36, 4-{3-[4-((8S,11R,13S,14S,17S)-17-hydroxy-13-methyl-3-oxo-17-pentafluoroethyl-2,3,6,7,8,11,12,13,14,15,16,17-dodecahydro-1H-cyclopenta[a]phenanthren-11-yl)benzyl]ureido}benzoic acid ethyl ester] here?
The IC50 was 0.7 nM.

What about the IC50 [2] of the same compound?
Its IC50 is 0.8 nM.

With C[C@]12C[C@H](c3ccc(CN=[N+]=[N-])cc3)C3=C4CCC(=O)C=C4CC[C@H]3[C@@H]1CC[C@@]2(O)C(F)(F)C(F)(F)F [Example 28, (8S,11R,13S,14S,17S)-11-(4-azidomethylphenyl)-17-hydroxy-13-methyl-17-pentafluoroethyl-1,2,6,7,8,11,12,13,14,15,16,17-dodecahydrocyclopenta[a]phenanthren-3-one] as the compound, how does the IC50 [1] read?
The IC50 was 0.01 nM.

And the IC50 [2]?
Its IC50 is 0.08 nM.
